Data from patent US7875638B2, “Synthesis of epothilones, intermediates thereto, analogues and uses thereof” (Sloan-Kettering Institute for Cancer Research, priority 2002, dated 2011).
≈ marks a conversion by molar mass, not a printed value. Where “and” joins values, the source holds several entries; their conditions need not be identical. Equal entries are not always repeated. Entries after “also recorded” stand apart in the source; their conditions may differ. Where two headings read alike, the source gives them in different places.

What was measured:
[1] = test system: CCRF-CEM/Taxol; type: cell-based, human; conditions: for IC50: Homo sapiens, CCRF-CEM
[2] = Octanol-water partition (POW) number by HPLC; type: physicochemical; conditions: HPLC estimate, pH 7.4 buffer; read-out: Lipophilicity octanol/water partition (POW)
Description: Determination of partition of octanol-water (POW) number. An HPLC method is used to estimate octanol-water partition. An Agilent 1100 HPLC system is used with an eclipse XDB C18 column 4.6×250 mm with a mobile phase of 60% acetonitrile/40% 25 mM potassium phosphate buffer at pH 7.4 with a flow rate of 0.8 ml per min. and the eluent is monitored at 250 nm. The standards used are benzyl alcohol, acetophenone, benzophenone, naphthalene, diphenyl ether and dibenzyl with known POW of […] respectively. Sodium dichromate is used to evaluate time zero which is 2.5 min and the retention times for the standards are 3.9, 5.4, 10.6, 14, 18.7 and 19.8 min, respectively. The k value is calculated by the formula of k=(trt−t0)/t0. Linear regression of log k vs. log POW gives a straight line with r^2=0.966. This graph is used to evaluate the POW value of the epothilone analogs.

[3] = test system: CCRF-CEM; conditions: for Potency compared with EpoB (51): sensitive and resistant cell lines
Description: (§1) Cytotoxicity Assays. In preparation for in vitro cytotoxicity assays, cells were cultured at an initial density 2-5×10^4 cells per milliliter. […] For both methods, the absorbance of each well was measured with a microplate reader (Power Wave XS, Bio-Tek, Winooski, Vt.).
(§2) A typical experiment involves culturing cells (e.g., CCRF-CEM) at an initial density of 2-5×10^4 cells per ml. […] For cells that were grown in suspension (such as CCRF-CEM and its sublines), cytotoxicitiy is measured by using the 2,-3-bis(2-methoxy-4-nitro-5-sulfophenyl)-5 carboxanilide)-2H terazodium hydroxide (XTT)-microculture tetrazonium method in duplicate in 96-well microtiter plates. For both methods, the absorbance of each well is measured with a microplate reader (EL-340, Bio-Tek, Burlington, Vt.). Each run entails six or seven concentrations of the tested drugs. Dose-effect relationship data are analyzed with the median-effect plot.
(§3) Cytotoxicity Assays: In preparation for in vitro cytotoxicity assays, cells were cultured at an initial density 2-5×10^4 cells per milliliter. […] For both methods, the absorbance of each well was measured with a microplate reader (Power Wave XS, Bio-Tek, Winooski, Vt.).

[4] = for Slower drug degradation in murine plasma as compared to dEpoB (1), factor: exposure to murine plasma
Description: (§4) Stability of epothilones in mouse and in human liver S9 fraction. The stability study was carried out with a fully automated HPLC system which consisted of a Prospekt-2 (Spark Holland, Netherlands) sample preparation system and an Agilent 1100 HPLC system. Briefly, the Prospekt 2 picked up a C8 extraction cartridge and washed it with acetonitrile and water. The Agilent autosampler, set at 37° C., picked up 20 μl of the sample, loaded it onto the cartridge, washed it with water, then the Prospekt-2 diverted the mobile phase stream through the extraction cartridge onto the analytical column, Reliance Stable Bond C8 4×80 mm with guard column (MacMod, Chadds Ford, Pa.) and the eluent was monitored at 250 nm. […] Sample preparation involved the addition of equal volumes of plasma to PBS for a total volume of 300-400 μl, filtered, and the addition of 0.5-2 μl of the substrate (20 mM) to achieve about 30-50 mAU at 250 nm in the HPLC analysis. For pooled human liver microsome S9 fraction (Xeno Tech, Lenex, Kans.), 20 μl (400 μg) or S9 fraction was mixed with 280 μl of PBS then proceeded as above. The sampling period was controlled by the autosampler and peak area data were collected to compare the rate of disappearance of the parent compound.
(§5) Stability of epothilones in mouse and in human liver S9 fraction: The stability study was carried out with a fully automated HPLC system which consisted of a Prospekt-2 (Spark Holland, Netherlands) sample preparation system and an Agilent 1100 HPLC system. Briefly, the Prospekt 2 picked up a C8 extraction cartridge and washed it with acetonitrile and water. The Agilent autosampler, set at 37° C., picked up 20 μl of the sample, loaded it onto the cartridge, washed it with water, then the Prospekt-2 diverted the mobile phase stream through the extraction cartridge onto the analytical column, Reliance Stable Bond C8 4×80 mm with guard column (MacMod, Chadds Ford, Pa.) and the eluent was monitored at 250 nm. […] Sample preparation involves the addition of equal volumes of plasma to PBS for a total volume of 400 μl, filtered, and the addition of 0.5-2 μl of the substrate (20 mM) to achieve about 30-50 mAU at 250 nm in the HPLC analysis. For pooled human liver microsome S9 fraction (Xeno Tech, Lenex, Kans.), 20 μl (400 μg) or S9 fraction was mixed with 280 μl of PBS then proceeds as above. The sampling period was controlled by the autosampler and peak area data were collected to compare the rate of disappearance of the parent compound.

[5] = test system: human xenografts in nude mice, such as MX-1; design: Relative therapuetic index at MTD: key to the marks not given beside the values; conditions: for Relative therapuetic index at MTD: graded at maximal tolerated dose
[6] = in vitro; conditions: mouse
Description: as §4, §5

[7] = in vitro; conditions: human
Description: as §4, §5

[8] = Solubility in water; conditions: for solubility: water
[9] = preliminary metabolic degradation studies
[10] = test system: human mammary carcinoma MX-1 xenograft
[11] = test system: human mammary carcinoma MX-1 xenograft; assay: MX-1 xenograft in nude mice
[12] = test system: CCRF-CEM; conditions: human, CCRF-CEM leukemic cells, 72 h
Description: as §1, §2, §3

[13] = test system: human T-cell lymphoblastic leukemia CCRF-CEM/Taxol xenograft; assay: CCRF-CEM/Taxol xenograft in nude mice; type: in vivo
[14] = test system: human colon carcinoma HCT-116 xenograft; assay: HCT-116 xenograft in nude mice
[15] = test system: human colon carcinoma HCT-116 xenograft
[16] = test system: A549/taxol cells
Description: as §1

[17] = XTT assay following 72 h inhibition, Table 1-3, read-out: IC50, C/Taxol
[18] = read-out: CCRF-CEM (IC50 (μM)), XTT assay following 72 h inhibition, Table 1-1
[19] = XTT assay following 72 h inhibition, Table 1-2, read-out: IC50 (μM), CCRF-CEM/Taxol
[20] = XTT assay following 72 h inhibition, Table 1-4, read-out: IC50, CCRF-CEM/Taxol
[21] = read-out: IC50, CCRF-CEM, XTT assay following 72 h inhibition, Table 1-4
[22] = 72 h, read-out: IC50, CCRF-CEM/Taxol

## C/C(=C\c1csc(C)n1)[C@@H]1C/C=C(/C(F)(F)F)CCC[C@H](C)[C@H](O)[C@@H](C)C(=O)C(C)(C)[C@@H](O)CC(=O)O1 [Compound 2, 26-trifluoro-12,13-desoxyepothilone B]
[1]; [17]
  IC50: 0.018 µM
[2]
  chromatographic logP: 4.1
[3]; human
  IC50: 0.0093 ± 0.0052 µM
[3]; read-out: IC50, CCRF-CEM(C), XTT assay following 72 h inhibition, Table 1-3
  IC50: 0.0041 µM
[4]
  Slower drug degradation in murine plasma as compared to dEpoB (1), factor: by a factor of seven
[5]; mouse, in vivo
  Maximal b.w. % drop without death: 22%
[5]; mouse, in vivo, iv
  Therapeutic dose regimen for Q2D 6 hr-iv infusion: 15 to 20 mg/kg
[6]; plasma
  half-life: 1.1 ± 0.117 h
[7]; s9
  half-life: 1.6 ± 0.4 h
[8]
  solubility: 8 µg/mL (≈ 14.7 µM)

## CC1=C/C[C@@H](/C(C)=C/c2csc(C)n2)OC(=O)C[C@H](O)C(C)(C)C(=O)[C@H](C)[C@@H](O)[C@@H](C)C\C=C\1 [Compound 6, epothilone 490, reference compound]
[3]; read-out: CCRF-CEM (IC50 (μM))
  IC50: 0.02 µM

## C/C(=C\c1csc(C)n1)[C@@H]1C/C=C(/C(F)(F)F)C/C=C/C[C@H](C)[C@H](O)[C@@H](C)C(=O)C(C)(C)[C@@H](O)CC(=O)O1 [Compound 19, 27-F3-[17]ddEpoB]
[3]; [18]
  IC50: 0.068 µM
[4]; preliminary metabolic degradation studies
  Degradation on exposure to nude mouse plasma: remained mostly intact
[9]
  Degradation on exposure to human plasma: remained mostly intact

## C/C1=C/C[C@@H](/C(C)=C/c2csc(C)n2)OC(=O)C[C@H](O)C(C)(C)C(=O)[C@H](C)[C@@H](O)[C@@H](C)/C=C/C1 [Compound 28, trans-9,10-dehydro-12,13-desoxyepothilone B]
[1]; [19]
  IC50: 0.0017 µM
[1]; [17]
  IC50: 0.0012 µM
[1]; [20]
  IC50: 0.0012 µM
[2]
  chromatographic logP: 3.3
[3]
  IC50 in vitro (FIG. 94): sub-nanomolar
[3]; XTT assay following 72 h inhibition, Table 1-2
  IC50: 0.0014 µM
[3]; XTT assay following 72 h inhibition, Table 1-3
  IC50: 0.0009 µM
[3]; XTT assay following 72 h inhibition, Table 1-4
  IC50: 0.0009 µM
[3]; tumor cell lines of Table 1-2
  Potency in direct comparison with dEpoB (1): nearly three times more potency
[5]
  Relative therapuetic index at MTD: ++++
[5]; mouse, in vivo
  Antitumor effect in human solid tumor xenograft models: strongly suppressed tumor growth
  Dose accomplishing complete suppression of tumor in a variety of xenografts: 3 mg/kg
  Efficacy compared with dEpoB: three times more efficacious
  Maximal b.w. % drop without death: 29%
[5]; mouse, in vivo, iv
  Therapeutic dose regimen for Q2D 6 hr-iv infusion: 3 to 4 mg/kg
[10]
  Enhancement of drug potency in xenograft experiments with MX-1 tumors: ca. 10 fold
[6]; mouse plasma
  half-life: 1.4 ± 0.1 h
[7]; pooled human liver S9 fraction
  half-life: 4.9 ± 0.7 h
[8]
  Water solubility relative to other epothilones: greatly increased water solubility
  solubility: 27 µg/mL (≈ 55.1 µM)
[11]; mouse, in vivo
  Therapeutic effect on MX-1 xenograft: tumor disappearance
[12]
  IC50: 0.9 ± 0.4 nM

## C/C(=C\c1csc(C)n1)[C@@H]1C[C@@H]2O[C@]2(C)C/C=C/[C@H](C)[C@H](O)[C@@H](C)C(=O)C(C)(C)[C@@H](O)CC(=O)O1 [Compound 49, (E)-9,10-dehydroepothilone B]
[1]; [20]
  IC50: 0.00042 µM
[13]; 0.6 mg/kg, Q3Dx5,x2
  Therapeutic effect on CCRF-CEM/Taxol xenograft: abolished tumor growth
[3]
  IC50 in vitro (FIG. 94): sub-nanomolar
  Potency compared with EpoB (51): ~3 fold and 2-4 fold
[3]; [21]
  IC50: 0.00023 µM
[5]; mouse, in vivo
  Antitumor effect in human solid tumor xenograft models: strongly suppressed tumor growth
[11]; 0.4-0.6 mg/kg, every three days 9-11 times, 6 hour iv infusion
  Therapeutic effect on MX-1 xenograft: shrinkage and disappearance of the tumor
[11]; every other day for 8 doses
  Therapeutic effect on MX-1 xenograft: tumor growth suppression but no shrinkage of the tumor
[11]; every other day for 9 doses, second to eighth day
  Body weight recovery, % of the control: 76% to 82%
[14]; 0.6 mg/kg, Q2Wx6, 6 hour infusion
  Mice died of toxicity within three days after the sixth dosage: four out of four

## C/C(=C\c1csc(C)n1)[C@@H]1C[C@H]2O[C@@]2(C)C/C=C/[C@H](C)[C@H](O)[C@@H](C)C(=O)C(C)(C)[C@@H](O)CC(=O)O1 [Compound 50]
[1]; [20]
  IC50: 0.0802 µM
[3]; [21]
  IC50: 0.0134 µM
[3]
  Potency compared with EpoB (51): much lower activity
[3]; listed as unnatural α-oxirane
  Potency compared with EpoB (51): virtually devoid of activity

## C/C(=C\c1csc(C)n1)[C@@H]1C[C@@H]2O[C@]2(C)CCC[C@H](C)[C@H](O)[C@@H](C)C(=O)C(C)(C)[C@@H](O)CC(=O)O1 [Compound 51, Epothilone B, reference compound]
[1]; [22]
  IC50: 0.0011 µM
[3]
  IC50 in vitro (FIG. 94): sub-nanomolar
[3]; read-out: Cytotoxic Efficacy IC50, CCRF-CEM leukemic cells, range of two experiments, seven concentration points
  IC50: 0.00053 ± 0.0002 µM
[3]; [21]
  IC50: 0.00062 µM
[5]; Q2D 6 hr-iv infusion
  Therapeutic dose regimen for Q2D 6 hr-iv infusion: 0.6 to 0.8 mg/kg
[5]
  Relative therapuetic index at MTD: +++
[5]; nude mice
  Maximal b.w. % drop without death: 15%
[6]; plasma
  half-life: 0.95 h
[7]; s9
  half-life: 15.8 h

## C/C(=C\c1csc(C)n1)[C@@H]1C[C@H]2O[C@@]2(C)CCC[C@H](C)[C@H](O)[C@@H](C)C(=O)C(C)(C)[C@@H](O)CC(=O)O1 [Compound 52]
[1]; [22]
  IC50: 0.151 µM
[3]; [21]
  IC50: 0.083 µM
[3]
  Potency compared with EpoB (51): much lower activity

## C/C1=C/C[C@@H](/C(C)=C/c2csc(CO)n2)OC(=O)C[C@H](O)C(C)(C)C(=O)[C@H](C)[C@@H](O)[C@@H](C)/C=C/C1 [Compound 57, 9,10-dehydro-dEpoF]
[1]; [19]
  IC50: 0.00073 µM
[3]
  IC50 in vitro (FIG. 94): sub-nanomolar
[3]; read-out: IC50 (μM), CCRF-CEM, XTT assay following 72 h inhibition, Table 1-2
  IC50: 0.00051 µM
[4]
  Slower drug degradation in murine plasma as compared to dEpoB (1), factor: ca. 7
[5]; mouse, in vivo
  Antitumor effect in human solid tumor xenograft models: strongly suppressed tumor growth
[8]
  Water solubility relative to other epothilones: greatly increased water solubility

## C/C(=C\c1csc(CO)n1)C1C/C=C(/C(F)(F)F)C/C=C/[C@H](C)[C@H](O)[C@@H](C)C(=O)C(C)(C)[C@@H](O)CC(=O)O1 (some centres unmarked) [Compound 59, 26-trifluoro-9,10-dehydro-dEpoF]
[8]
  Water solubility relative to other epothilones: greatly increased water solubility

## CC(=O)O[C@H]1C(=O)[C@@]2(C)[C@H]([C@H](OC(=O)c3ccccc3)[C@]3(O)C[C@H](OC(=O)[C@H](O)[C@@H](NC(=O)c4ccccc4)c4ccccc4)C(C)=C1C3(C)C)[C@]1(OC(C)=O)CO[C@@H]1C[C@@H]2O [Paclitaxel, reference compound]
[1]
  Resistance of CCRF-CEM/Taxol subline: 44 fold
[13]; 20 mg/kg
  Final tumor suppression on D34: 75.6%
[13]; 20 mg/kg, 6 hr-i.v. infusion, listed as Taxol
  Therapeutic effect on CCRF-CEM/Taxol xenograft: only partial suppression of tumor growth and failed to achieve tumor shrinkage; also recorded: tumor growth suppression but with little or no tumor shrinkage
[10]; 20 mg/kg
  Tumor reappeared on day 10 after administration (mice): 2/7
[10]; 20 mg/kg, 6 h
  Tumor free after Q2Dx6 6 hr-iv. infusion (mice): 7/7
[10]; 20 mg/kg, 240 h
  Mice relapsed on day 10 after suspension of treatment: 2/7
[15]; 20 mg/kg
  Relapse, time after stopping treatment: 1.1 months
[15]; 96 h
  Cell kill: 2.56 log
  Tumor suppression: 99.7%
[16]
  Resistance of A549/taxol cells: 44 fold
[11]; oral
  Effect of oral administration on MX-1 xenografts: did not affect the tumor
[14]; Fludelone 20 and 30 mg/kg, Taxol 20 mg/kg
  Tumor relapse during follow-up to D200: tumor relapse occurred on D71, 75, 81 and 81; also recorded: relapses on D71, 75, 81, and 81
[14]; Q2Dx4, 6 hr-i.v. infusion for 3 cycles, F3-deH-dEpoB 20 and 30 mg/kg, Taxol 20 mg/kg
  Tumor disappearance (mice): 4 out of 4

## [17]ddEpoB [Compound 23, reference compound]
[3]; [18]
  IC50: 0.04 µM
